{
  "source": "patent US20020137929A1",
  "about": "“1 - (3-heterocyclylphenyl) isothiourea, -isourea, -guanidine and -amidine herbicidal agents” (Intellectual Property Department, BASF Aktiengesellschaft, priority 1998, published 2002)",
  "key": {"[1]": {"test_system": "ABUTH (Velvetleaf)", "assay": "Postemergence herbicidal evaluation", "type": "in vivo, Abutilon theophrasti", "conditions": "postemergence", "how_it_was_run": "(§1)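 Rate range approx. 0.0156–0.500 kg/ha. Foliar application at 40 psi to ~2-week seedlings; surfactant 0.5% TWEEN 20 in 50/50 acetone/water. Evaluation 4–5 wk post-treatment by 0–9 visual injury score, means of replicate tests.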"}, "[2]": {"test_system": "IPOHE (Morningglory, Ivyleaf)", "assay": "Postemergence herbicidal evaluation", "type": "in vivo, Ipomoea hederacea", "conditions": "postemergence", "how_it_was_run": "as §1"}, "[3]": {"test_system": "SETVI (Foxtail, Green)", "assay": "Postemergence herbicidal evaluation", "type": "in vivo, Setaria viridis", "conditions": "postemergence", "how_it_was_run": "as §1"}, "[4]": {"test_system": "GLXMAW (Soybean, Williams)", "assay": "Postemergence herbicidal evaluation", "type": "in vivo, Glycine max, (L.) Merr. cv Williams", "conditions": "postemergence", "how_it_was_run": "as §1"}, "[5]": {"test_system": "ZEAMX (Corn, Field)", "assay": "Postemergence herbicidal evaluation", "type": "in vivo, Zea mays", "conditions": "postemergence", "how_it_was_run": "as §1"}, "[6]": {"test_system": "ABUTH (Velvetleaf)", "assay": "Preemergence herbicidal evaluation", "type": "in vivo, Abutilon theophrasti", "conditions": "rated 4-5 weeks after treatment", "how_it_was_run": "(§2)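 In this greenhouse assay, monocot and dicot seeds are planted in soil and treated prior to emergence with an aqueous acetone spray (about 0.0156-0.500 kg/ha). Plants are assessed visually against control on a 0-9 scale after 4-5 weeks.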"}, "[7]": {"test_system": "AMBEL (Ragweed, Common)", "assay": "Preemergence herbicidal evaluation", "type": "in vivo, Ambrosia artemisifolia", "conditions": "rated 4-5 weeks after treatment", "how_it_was_run": "as §2"}, "[8]": {"test_system": "CASOB (Sicklepod)", "assay": "Preemergence herbicidal evaluation", "type": "in vivo, Cassia obtusifolia", "conditions": "rated 4-5 weeks after treatment", "how_it_was_run": "as §2"}, "[9]": {"test_system": "IPOHE (Morningglory, Ivyleaf)", "assay": "Preemergence herbicidal evaluation", "type": "in vivo, Ipomoea hederacea", "conditions": "rated 4-5 weeks after treatment", "how_it_was_run": "as §2"}, "[10]": {"test_system": "ECHCG (Barnyardgrass)", "assay": "Preemergence herbicidal evaluation", "type": "in vivo, Echinochloa crus-galli", "conditions": "rated 4-5 weeks after treatment", "how_it_was_run": "as §2"}, "[11]": {"test_system": "ECHORC (Watergrass (Calif.))", "assay": "Preemergence weed control under flooded paddy conditions", "type": "in vivo, Echinochloa oryzoides", "conditions": "rated 3-4 weeks after treatment", "how_it_was_run": "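Flooded-pot preemergence screen with silt loam and seeds in the upper 0.5 cm. Dose about 0.0313 to 0.500 kg/ha, delivered into flood water; visual 0-9 score after 3 to 4 weeks.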"}, "[12]": {"test_system": "CYPSE (Flatsedge)", "assay": "Preemergence weed control under flooded paddy conditions", "type": "in vivo, Cyperus serotinus", "conditions": "rated 3-4 weeks after treatment", "how_it_was_run": "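Values are visual 0-9 scores against a control for a preemergence application into paddy flood water at about 0.0313 to 0.500 kg/ha. Greenhouse duration was three to four weeks.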"}, "[13]": {"test_system": "ECHORC (Watergrass (Calif.))", "assay": "Postemergence weed control under flooded paddy conditions", "type": "in vivo, Echinochloa oryzoides", "conditions": "postemergence weeds, 3-4 weeks after treatment", "how_it_was_run": "(§3)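 With weeds 3 to 5 cm tall and rice at the 1.5 to 2.5 leaf stage, containers were flooded and water held 1.5 to 3 cm above soil. Compounds in 50/50 v/v aqueous/acetone went into the flood water at about 0.0313 to 0.500 kg/ha a.i. Effects were visually rated 0–9 against controls after three to four weeks in the greenhouse.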"}, "[14]": {"test_system": "CYPIR (Rice Flatsedge)", "assay": "Postemergence weed control under flooded paddy conditions", "type": "in vivo, Cyperus iria", "conditions": "postemergence weeds, 3-4 weeks after treatment", "how_it_was_run": "as §3"}},
  "data": [
    {"smiles": "CC1SC(=Nc2cc(-n3c(=O)cc(C(F)(F)F)n(C)c3=O)c(F)cc2Cl)N(C)C1=O", "note": "(stereo not shown) [Compound 9]", "values": [
      {"measurement": "ABUTH herbicidal rating", "setting": "[1]; rate 0.0156 kg/ha", "value": 9.0},
      {"measurement": "ABUTH herbicidal rating", "setting": "[1]; rate 0.0313 kg/ha", "value": 9.0},
      {"measurement": "ABUTH herbicidal rating", "setting": "[1]; rate 0.0625 kg/ha", "value": 9.0},
      {"measurement": "ABUTH herbicidal rating", "setting": "[1]; rate 0.1250 kg/ha", "value": 9.0},
      {"measurement": "IPOHE herbicidal rating", "setting": "[2]; rate 0.0156 kg/ha", "value": 4.0},
      {"measurement": "IPOHE herbicidal rating", "setting": "[2]; rate 0.0313 kg/ha", "value": 7.0},
      {"measurement": "IPOHE herbicidal rating", "setting": "[2]; rate 0.0625 kg/ha", "value": 9.0},
      {"measurement": "IPOHE herbicidal rating", "setting": "[2]; rate 0.1250 kg/ha", "value": 9.0},
      {"measurement": "SETVI herbicidal rating", "setting": "[3]; rate 0.0156 kg/ha", "value": 1.0},
      {"measurement": "SETVI herbicidal rating", "setting": "[3]; rate 0.0313 kg/ha", "value": 2.0},
      {"measurement": "SETVI herbicidal rating", "setting": "[3]; rate 0.0625 kg/ha", "value": 6.5},
      {"measurement": "SETVI herbicidal rating", "setting": "[3]; rate 0.1250 kg/ha", "value": 9.0},
      {"measurement": "GLXMAW herbicidal rating", "setting": "[4]; rate 0.0156 kg/ha", "value": 4.5},
      {"measurement": "GLXMAW herbicidal rating", "setting": "[4]; rate 0.0313 kg/ha", "value": 5.8},
      {"measurement": "GLXMAW herbicidal rating", "setting": "[4]; rate 0.0625 kg/ha", "value": 6.8},
      {"measurement": "GLXMAW herbicidal rating", "setting": "[4]; rate 0.1250 kg/ha", "value": 7.3},
      {"measurement": "ZEAMX herbicidal rating", "setting": "[5]; rate 0.0156 kg/ha", "value": 4.8},
      {"measurement": "ZEAMX herbicidal rating", "setting": "[5]; rate 0.0313 kg/ha", "value": 5.0},
      {"measurement": "ZEAMX herbicidal rating", "setting": "[5]; rate 0.0625 kg/ha", "value": 5.5},
      {"measurement": "ZEAMX herbicidal rating", "setting": "[5]; rate 0.1250 kg/ha", "value": 7.0},
      {"measurement": "ABUTH preemergence herbicidal rating", "setting": "[6]; rate 0.0156 kg/ha", "value": 9.0},
      {"measurement": "ABUTH preemergence herbicidal rating", "setting": "[6]; rate 0.0313 kg/ha", "value": 9.0},
      {"measurement": "ABUTH preemergence herbicidal rating", "setting": "[6]; rate 0.0625 kg/ha", "value": 9.0},
      {"measurement": "ABUTH preemergence herbicidal rating", "setting": "[6]; rate 0.1250 kg/ha", "value": 9.0},
      {"measurement": "ABUTH preemergence herbicidal rating", "setting": "[6]; rate 0.2500 kg/ha", "value": 9.0},
      {"measurement": "AMBEL preemergence herbicidal rating", "setting": "[7]; rate 0.0156 kg/ha", "value": 3.0},
      {"measurement": "AMBEL preemergence herbicidal rating", "setting": "[7]; rate 0.0313 kg/ha", "value": 6.3},
      {"measurement": "AMBEL preemergence herbicidal rating", "setting": "[7]; rate 0.0625 kg/ha", "value": 7.3},
      {"measurement": "AMBEL preemergence herbicidal rating", "setting": "[7]; rate 0.1250 kg/ha", "value": 9.0},
      {"measurement": "AMBEL preemergence herbicidal rating", "setting": "[7]; rate 0.2500 kg/ha", "value": 9.0},
      {"measurement": "CASOB preemergence herbicidal rating", "setting": "[8]; rate 0.0156 kg/ha", "value": 1.0},
      {"measurement": "CASOB preemergence herbicidal rating", "setting": "[8]; rate 0.0313 kg/ha", "value": 1.0},
      {"measurement": "CASOB preemergence herbicidal rating", "setting": "[8]; rate 0.0625 kg/ha", "value": 3.0},
      {"measurement": "CASOB preemergence herbicidal rating", "setting": "[8]; rate 0.1250 kg/ha", "value": 5.3},
      {"measurement": "CASOB preemergence herbicidal rating", "setting": "[8]; rate 0.2500 kg/ha", "value": 8.0},
      {"measurement": "IPOHE preemergence herbicidal rating", "setting": "[9]; rate 0.0156 kg/ha", "value": 5.0},
      {"measurement": "IPOHE preemergence herbicidal rating", "setting": "[9]; rate 0.0313 kg/ha", "value": 7.7},
      {"measurement": "IPOHE preemergence herbicidal rating", "setting": "[9]; rate 0.0625 kg/ha", "value": 7.0},
      {"measurement": "IPOHE preemergence herbicidal rating", "setting": "[9]; rate 0.1250 kg/ha", "value": 9.0},
      {"measurement": "IPOHE preemergence herbicidal rating", "setting": "[9]; rate 0.2500 kg/ha", "value": 9.0},
      {"measurement": "ECHCG preemergence herbicidal rating", "setting": "[10]; rate 0.0156 kg/ha", "value": 5.7},
      {"measurement": "ECHCG preemergence herbicidal rating", "setting": "[10]; rate 0.0313 kg/ha", "value": 8.3},
      {"measurement": "ECHCG preemergence herbicidal rating", "setting": "[10]; rate 0.0625 kg/ha", "value": 8.7},
      {"measurement": "ECHCG preemergence herbicidal rating", "setting": "[10]; rate 0.1250 kg/ha", "value": 9.0},
      {"measurement": "ECHCG preemergence herbicidal rating", "setting": "[10]; rate 0.2500 kg/ha", "value": 9.0},
      {"measurement": "Herbicidal rating ECHORC", "setting": "[11]; 0.0313 kg/ha", "value": 0.0},
      {"measurement": "Herbicidal rating ECHORC", "setting": "[11]; 0.0625 kg/ha", "value": 2.0},
      {"measurement": "Herbicidal rating ECHORC", "setting": "[11]; 0.1250 kg/ha", "value": 4.0},
      {"measurement": "Herbicidal rating ECHORC", "setting": "[11]; 0.2500 kg/ha", "value": 7.0},
      {"measurement": "Herbicidal rating CYPSE", "setting": "[12]; 0.0313 kg/ha", "value": 0.0},
      {"measurement": "Herbicidal rating CYPSE", "setting": "[12]; 0.0625 kg/ha", "value": 0.0},
      {"measurement": "Herbicidal rating CYPSE", "setting": "[12]; 0.1250 kg/ha", "value": 2.0},
      {"measurement": "Herbicidal rating CYPSE", "setting": "[12]; 0.2500 kg/ha", "value": 7.0},
      {"measurement": "Herbicidal rating ECHORC", "setting": "[13]; rate 0.0313 kg/ha", "value": 0.0},
      {"measurement": "Herbicidal rating ECHORC", "setting": "[13]; rate 0.0625 kg/ha", "value": 2.0},
      {"measurement": "Herbicidal rating ECHORC", "setting": "[13]; rate 0.1250 kg/ha", "value": 4.0},
      {"measurement": "Herbicidal rating ECHORC", "setting": "[13]; rate 0.2500 kg/ha", "value": 7.0},
      {"measurement": "Herbicidal rating CYPIR", "setting": "[14]; rate 0.0313 kg/ha", "value": 0.0},
      {"measurement": "Herbicidal rating CYPIR", "setting": "[14]; rate 0.0625 kg/ha", "value": 2.0},
      {"measurement": "Herbicidal rating CYPIR", "setting": "[14]; rate 0.1250 kg/ha", "value": 4.0},
      {"measurement": "Herbicidal rating CYPIR", "setting": "[14]; rate 0.2500 kg/ha", "value": 6.0}
    ]}
  ]
}
